Test results reported in US12403132B2, “Methods of treating bone marrow failure syndromes and compositions for use in the same” (The Board of Trustees of the Leland Stanford Junior …, priority 2020, dated 2025).
Where two headings read alike, the source gives them in different places.

Key:
[1] = test system: CD235+ erythroblasts; test: CD235+ erythroid expansion of differentiating human cord blood CD34+ progenitors (shRPS19/shRPL11 DBA models), flow cytometry; assay type: cell-based; details: for CD235+ erythroid expansion in RPS19-insufficiency, % of control: 6.6% of controls (shLuc) untreated; for increase of erythroid expansion in RPS19-insufficiency: concentrations published to block TGFβ signaling, 15 days; for fold increase of erythroid expansion in response to SD208: 5 μM
Procedure: FIG. 7. […] (a) Differentiating cord blood CD34+ progenitors were transduced with shRNA against luciferase or RPS19 and treated with inhibitors at working concentrations for TGFβ inhibition every three days. Cells were counted and CD235+ erythroid cells were assessed by flow cytometry after 15 days. (b) Prior to flow cytometry, 5000 cells per group were taken from differentiating cultures for NLK kinase assay. (c) CD34+ progenitors were transduced with shRNA against luciferase or RPS19 and non-targeting or siRNA against NLK. After sorting, samples were split into two groups and either treated with vehicle or SD208 every three days. After 15 days cells were counted and subject to flow cytometry to compare the expansion of maturing CD235+ erythroid (left panel) and CD11b+ myeloid cells (right panel). (d) Cord Blood CD34+ progenitors were transduced with shRNA against luciferase (left panel) or RPS19 (right panel) differentiated in erythroid media for 15 days alone, or in the presence of SB525334 or SD208 at 5 μM. Cells were counted and CD235+ erythroid (D—upper) and CD11b+ myeloid cell (D—lower) percentages were determined by flow cytometry. The number of erythroid or myeloid cells is expressed as a percentage of the number of that lineage with no cytokine or drug treatment.
FIG. 8. […] Human cord blood CD34+ progenitors were transduced with lentivirus co-expressing GFP with shRNA against luciferase (shLuc), RPS19 (shRPS19) or RPL11 (shRPL11). After 36 hours cells GFP+ cells were differentiated in erythroid media in the presence or absence of 5 μM SD208 for 15 days. Cells were counted and assessed for cell surface expression of CD235. (a) The percentage of CD235+ cells was multiplied by the cell count and values were compared as a percentage of untreated controls. (b) Normalizing values relative to untreated RPS19-insufficiency progenitors facilitates direct comparison of erythropoiesis between untreated and SD208-treated cultures. (c) Approximately 3000 cells were removed from differentiating treatments at day 6 and NLK activity was assessed. Values were normalized to reflect a fold induction relative to untreated controls. (d) Lin-Kit+ hematopoietic progenitors were obtained from three mouse embryos expressing tetracycline-inducible shRNA against RPS19 at day E14.5 or three untreated mice, and thee mature RPL11^+/+ or three mature RPL11^+/lox mice treated with tamoxifen for eight weeks. Cells were grown in the presence or absence of doxycycline and/or SD208 for eight days prior to counting and assessing for ter119 surface expression. Values were expressed as a percentage relative to untreated controls (e) and directly comparing the effect of SD208 on erythropoiesis in ribosomal-insufficiency by expressing values relative to untreated ribosome-insufficient cultures (f). At day 5 approximately 3000 cells were assayed for NLK kinase assay (g). CD34+ HSPCs were isolated from three healthy control and three DBA patient mononuclear bone marrow aspirates by magnetic bead sorting and differentiated in the presence or absence of SD208 for 14 days. After counting the total cell population, the ratio of CD235+ erythroblasts was determined by flow cytometry and number of CD235+ erythroblasts calculated. This was expressed as a percentage of the average number of erythroid cells present in untreated healthy controls. (h) The direct effect of SD208 on erythroid expansion in DBA patient samples was calculated following normalization of untreated DBA patient samples as 1-fold, (i) At day five, 3000 cells from each of the differentiating cultures was analyzed for NLK activity by kinase assay and are expressed as a fold induction relative to untreated healthy controls.

[2] = test system: CD235+ erythroblasts; test: as above; assay type: cell-based; design: increase of erythroid expansion / impact on erythropoiesis in healthy controls / erythroid expansion in RPS19-insufficiency: dose or concentration left out as unconfirmed; details: for erythroid expansion in RPS19-insufficiency: alone and combined; for increase of CD235+ erythroid expansion / CD235+ erythroid expansion, % of control: 50 mM metformin; for CD235+ erythroid expansion, % of control: 14 days

With `Cc1cccc(-c2nn3c(c2-c2ccnc4ccc(C(N)=O)cc24)CCC3)n1` [Galunisertib] the “CD235+ erythroid expansion in RPS19-insufficiency, % of control” value [1] was 21% and the “increase of erythroid expansion in RPS19-insufficiency” value (from here on “increase … in RPS19-insufficiency”) [1] was 3.2 fold.
With `NC(=O)c1ccc(-c2nc(-c3ccc4c(c3)OCO4)c(-c3ccccn3)[nH]2)cc1` [SB431542] the “CD235+ erythroid expansion in RPS19-insufficiency, % of control” value [1] was 21% and the “increase … in RPS19-insufficiency” value [1] was 3.2 fold.
`Fc1ccc(Cl)cc1-c1nc(Nc2ccncc2)c2nccnc2n1` [SD208] was tested, and the “CD235+ erythroid expansion in RPS19-insufficiency, % of control” value [1] was 41.5%, the “fold increase of erythroid expansion in response to SD208” value ([1]; RPL11-insufficiency) was 6.9 fold and the “erythroid expansion, % of untreated controls” value ([1]; RPL11-insufficiency, SD208 5 μM, 5.8% untreated) was 36.7%. The “fold increase of erythroid expansion in response to SD208” value ([1]; RPS19-insufficiency) was 4.7 fold, the “erythroid expansion, % of untreated controls” value ([1]; RPS19-insufficiency, SD208 5 μM, 8.7% untreated) was 38.7% and the “RPS19-insufficient erythroid expansion, fold of non-TGFβ-treated cells” value ([1]; TGFβ-treated, SD208 5 μM) was 4.1 fold. The “increase … in RPS19-insufficiency” value [1] was 6.3 fold, the “CD235+ erythroblast expansion, % of controls” value ([2]; RPS19-insufficient, SD208 and/or siRNA against NLK, 15 days) was 40.3% and the “erythroid expansion, % of untreated controls” value ([2]; control shRNA, SD208 5 μM, 15 days) was “approximately 105%”.
With `CC(C)=CCC[C@](C)(O[C@@H]1O[C@H](CO[C@@H]2O[C@H](CO)[C@@H](O)[C@H](O)[C@H]2O)[C@@H](O)[C@H](O)[C@H]1O)[C@H]1CC[C@]2(C)[C@@H]1[C@H](O)C[C@@H]1[C@@]3(C)CC[C@H](O[C@@H]4O[C@H](CO)[C@@H](O)[C@H](O)[C@H]4O[C@@H]4O[C@H](CO)[C@@H](O)[C@H](O)[C@H]4O)C(C)(C)[C@@H]3CC[C@]12C` [ginsenoside Rb1] the “concentration at which 90% potency is achieved” value [2] was 8.6 mM, the “impact on erythropoiesis in healthy controls” value [2] was “did not significantly impact” and the “improvement of erythroid expansion” value ([2]; RPS19-insufficiency, ginsenoside and/or siRNA against NLK) was 2.7 fold. The “increase of erythroid expansion” value ([2]; RPS19-insufficiency, miRNA and/or drug) was 2.52 fold, the “increase of erythroid expansion” value ([2]; RPS19-insufficient progenitors) was 2.6 fold and the “erythroid expansion in RPS19-insufficiency” value [2] was 20.9%. The EC50 ([2]; read-out: EC50 value (erythroid expansion)) was 2.3 mM.
For `CN(C)C(=N)N=C(N)N` [metformin], the “concentrations at which significant erythroid improvement was detected” value [2] was “above 8 mM”, the EC50 ([2]; Homo sapiens, read-out: EC50 (erythroid expansion)) was 11.4 mM and the “increase of CD235+ erythroid expansion” value ([2]; RPL11-insufficiency) was 2.0 fold. The “CD235+ erythroid expansion, % of control” value ([2]; RPL11-insufficiency, 16.4% untreated) was 32.7%, the “improvement of erythropoiesis (CD235+)” value ([2]; RPS19-insufficiency (8.3% of controls untreated), 12 days) was 3.6 fold and the “increase of CD235+ erythroid expansion” value ([2]; RPS19-insufficiency) was 5.9 fold. For the same compound, the “CD235+ erythroid expansion, % of control” value ([2]; RPS19-insufficiency, 5.7% untreated) was 33.3% and the “erythroid expansion in RPS19-insufficiency” value [2] was 28.4%.
